Structures can show the parent of a compound that is named as a salt.
These compounds were tested against human KV7.2/KV7.3 (Homo sapiens (Human), UniProt O43525+O43526) (assay: Potassium flux assay (IPG-2 AM dye)). Conditions: TREX HEK 293 or HEK 293 cells expressing human KV7.2/KV7.3; arithmetic mean values.
Assay type: cell-based
Outline: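 HEK 293 or TREX HEK 293 cells stably expressing human KV7.2/KV7.3 (tetracycline-induced where needed), loaded with IPG-2 AM, then compound for 20 min at room temperature. Flux triggered by K challenge buffer (10 mM KCl, pH 7.4), read at 530/558 nm; EC50 from 16-point 2-fold series from 30 μM, normalised to DMSO and reference modulator.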
With `Cc1ncc(Nc2nccc3cc(OCc4cn[nH]c4)ccc23)cn1` [Example 395, 6-((1H-pyrazol-4-yl)methoxy)-N-(2-methylpyrimidin-5-yl)isoquinolin-1-amine] the EC50 was 1 to 10 µM.
Work on `Cc1ncc(Nc2nccc3cc(OCc4c[nH]nc4C)ccc23)cn1` [Example 396, 6-((3-methyl-1H-pyrazol-4-yl)methoxy)-N-(2-methylpyrimidin-5-yl)isoquinolin-1-amine] yielded an EC50 of under 1 µM.
In the case of `Cn1cc(F)c(COc2ccc3c(Nc4ccc(Cl)nc4)nccc3c2)n1` [Example 397, N-(6-chloropyridin-3-yl)-6-((4-fluoro-1-methyl-1H-pyrazol-3-yl)methoxy)isoquinolin-1-amine formate], the EC50 is reported as under 1 µM.
For `Cc1cc2ccccc2c(Nc2ccc(Cl)nc2)n1` [Example 398, N-(6-chloropyridin-3-yl)-3-methylisoquinolin-1-amine], the EC50 was at least 30 µM.
For `COc1cnc2c(Nc3ccc(Cl)nc3)nccc2c1` [Example 399, N-(6-chloropyridin-3-yl)-3-methoxy-1,7-naphthyridin-8-amine], the EC50 was 1 to 10 µM.
Compound `N#CCn1cc(COc2ccc3c(Nc4ccc(Cl)nc4)nccc3c2)cn1` [Example 400, 2-(4-(((1-((6-chloropyridin-3-yl)amino)isoquinolin-6-yl)oxy)methyl)-1H-pyrazol-1-yl)acetonitrile] has an EC50 of under 1 µM.
Work on `O=C(Nc1ccc2c(Nc3ccc(Cl)nc3)nccc2c1)C1(CO)CC1` [Example 401, N-(1-((6-chloropyridin-3-yl)amino)isoquinolin-6-yl)-1-(hydroxymethyl)cyclopropane-1-carboxamide] yielded an EC50 of at least 30 µM.
For `FC(F)(F)CNc1cnc(Nc2ccc(Cl)nc2)c2[nH]ccc12` [Example 402, NF-(6-chloropyridin-3-yl)-N^4-(2,2,2-trifluoroethyl)-1H-pyrrolo[2,3-c]pyridine-4,7-diamine], the EC50 was 1 to 10 µM.
Compound `Clc1ccc(Nc2ncc(NCc3ccccc3)c3cc[nH]c23)cn1` [Example 403, N^4-benzyl-N^7-(6-chloropyridin-3-yl)-1H-pyrrolo[2,3-c]pyridine-4,7-diamine] has an EC50 of 10 to 30 µM.
`FC1(F)CC1COc1ccc2c(Nc3ccc(Cl)nc3)nccc2c1` (stereo not shown) [Example 404, N-(6-chloropyridin-3-yl)-6-((2,2-difluorocyclopropyl)methoxy)isoquinolin-1-amine] showed an EC50 of under 1 µM.
With `CC1(C)CC[C@@H](COc2ccc3c(Nc4ccc(Cl)nc4)nccc3c2)O1` [Example 405, (S)-N-(6-chloropyridin-3-yl)-6-((5,5-dimethyltetrahydrofuran-2-yl)methoxy)isoquinolin-1-amine] the EC50 was 1 to 10 µM.
`CC1(COc2ccc3c(Nc4ccc(Cl)nc4)nccc3c2)CCCO1` (stereo not shown) [Example 406, N-(6-chloropyridin-3-yl)-6-((2-methyltetrahydrofuran-2-yl)methoxy)isoquinolin-1-amine] was tested, and the EC50 was under 1 µM.
`FC1(F)CC(COc2ccc3c(Nc4ccc(Cl)nc4)nccc3c2)C1` [Example 407, N-(6-chloropyridin-3-yl)-6-((3,3-difluorocyclobutyl)methoxy)isoquinolin-1-amine] showed an EC50 of 1 to 10 µM.
In the case of `F[C@H]1C[C@H](Oc2ccc3c(Nc4ccc(Cl)nc4)nccc3c2)C1` [Example 408, N-(6-chloropyridin-3-yl)-6-((1r,3r)-3-fluorocyclobutoxy)isoquinolin-1-amine], the EC50 is reported as 1 to 10 µM.
Work on `FC(F)C(F)(F)COc1ccc2c(Nc3ccc(Cl)nc3)nccc2c1` [Example 409, N-(6-chloropyridin-3-yl)-6-(2,2,3,3-tetrafluoropropoxy)isoquinolin-1-amine] yielded an EC50 of 1 to 10 µM.
Work on `COc1ccc2c(Nc3ccc(Cl)nc3)ncc(OC)c2c1` [Example 410, N-(6-chloropyridin-3-yl)-4,6-dimethoxyisoquinolin-1-amine] yielded an EC50 of 10 to 30 µM.
Compound `Clc1ccc(Nc2nccc3cc(OC4CCC4)ccc23)cn1` [Example 411, N-(6-chloropyridin-3-yl)-6-cyclobutoxyisoquinolin-1-amine] has an EC50 of 1 to 10 µM.
Compound `FC1(F)CC(Oc2ccc3c(Nc4ccc(Cl)nc4)nccc3c2)C1` [Example 412, N-(6-chloropyridin-3-yl)-6-(3,3-difluorocyclobutoxy)isoquinolin-1-amine] has an EC50 of 1 to 10 µM.
In the case of `F[C@@H]1C[C@H]1COc1ccc2c(Nc3ccc(Cl)nc3)nccc2c1` [Example 413, N-(6-chloropyridin-3-yl)-6-(((1S,2R)-2-fluorocyclopropyl)methoxy)isoquinolin-1-amine], the EC50 is reported as 1 to 10 µM.
Work on `F[C@H]1C[C@H]1COc1ccc2c(Nc3ccc(Cl)nc3)nccc2c1` [Example 414, N-(6-chloropyridin-3-yl)-6-(((1S,2S)-2-fluorocyclopropyl)methoxy)isoquinolin-1-amine] yielded an EC50 of 1 to 10 µM.
For `Clc1ccc(Nc2nccc3cc(OCC4CCOC4)ccc23)cn1` (stereo not shown) [Example 415, N-(6-chloropyridin-3-yl)-6-((tetrahydrofuran-3-yl)methoxy)isoquinolin-1-amine], the EC50 was under 1 µM.
`CC1(C)CC[C@H](COc2ccc3c(Nc4ccc(Cl)nc4)nccc3c2)O1` [Example 416, (R)-N-(6-chloropyridin-3-yl)-6-((5,5-dimethyltetrahydrofuran-2-yl)methoxy)isoquinolin-1-amine] gave an EC50 of 1 to 10 µM.
In the case of `FC(F)COc1ccc2c(Nc3ccc(Cl)nc3)nccc2c1` [Example 417, N-(6-chloropyridin-3-yl)-6-(2,2-difluoroethoxy)isoquinolin-1-amine], the EC50 is reported as 1 to 10 µM.
Compound `COCCNC(=O)c1ccc2c(Nc3ccc(Cl)nc3)nccc2c1` [Example 418] has an EC50 of 10 to 30 µM.
With `O=C(NCC1CC1)c1ccc2c(Nc3ccc(Cl)nc3)nccc2c1` [Example 419, 1-((6-chloropyridin-3-yl)amino)-N-(cyclopropylmethyl)isoquinoline-6-carboxamide] the EC50 was 10 to 30 µM.
In the case of `CC1(C)CCC(COc2ccc3c(Nc4cnc(Cl)nc4)nccc3c2)O1` (stereo not shown) [Example 420], the EC50 is reported as 1 to 10 µM.
In the case of `Clc1ccc(Nc2nccc3cc(N4CCCC4)ccc23)cn1` [Example 421, N-(6-chloropyridin-3-yl)-6-(pyrrolidin-1-yl)isoquinolin-1-amine], the EC50 is reported as 1 to 10 µM.
Compound `Cn1nccc1-c1ccc2c(Nc3ccc(Cl)nc3)nccc2c1` [Example 422, N-(6-chloropyridin-3-yl)-6-(1-methyl-1H-pyrazol-5-yl)isoquinolin-1-amine] has an EC50 of 1 to 10 µM.
Compound `Clc1ccc(Nc2nccc3cc(-c4cncnc4)ccc23)cn1` [Example 423, N-(6-chloropyridin-3-yl)-6-(pyrimidin-5-yl)isoquinolin-1-amine] has an EC50 of 10 to 30 µM.
Work on `Clc1ccc(Nc2nccc3cc(-c4cc[nH]n4)ccc23)cn1` [Example 424, N-(6-chloropyridin-3-yl)-6-(1H-pyrazol-3-yl)isoquinolin-1-amine] yielded an EC50 of 1 to 10 µM.
`Clc1ccc(Nc2nccc3cc(Cn4nccn4)ccc23)cn1` [Example 425, 6-((2H-1,2,3-triazol-2-yl)methyl)-N-(6-chloropyridin-3-yl)isoquinolin-1-amine] showed an EC50 of 1 to 10 µM.
With `Clc1ccc(Nc2nccc3cc(Cc4ccccn4)ccc23)cn1` [Example 426, N-(6-chloropyridin-3-yl)-6-(pyridin-2-ylmethyl)isoquinolin-1-amine] the EC50 was 1 to 10 µM.
`Cc1ccc(Nc2nccc3cc(OCc4c[nH]nc4C)ccc23)cn1` [Example 427, 6-((3-methyl-1H-pyrazol-4-yl)methoxy)-N-(6-methylpyridin-3-yl)isoquinolin-1-amine formate] was tested, and the EC50 was under 1 µM.
“N^8-(6-chloropyridin-3-yl)-N^3-((1-methyl-1H-pyrazol-4-yl)methyl)-1,7-naphthyridine-3,8-diamine [Example 251]” was tested, and the EC50 was 1 to 10 µM.

Source: patent US20240101531A1, “PYRIDINAMINE DERIVATIVES AND THEIR USE AS POTASSIUM CHANNEL MODULATORS” (Xenon Pharmaceuticals Inc., priority 2022, published 2024)
